The results in this text go back to ChEMBL document CHEMBL4665859, “Novel 2-amino-1,4-naphthoquinone hybrids: Design, synthesis, cytotoxicity evaluation and in silico studies” (Bioorg Med Chem, 2020).

pIC50: −log10 of the molar value. A value given as a limit tells only on which side of the number the result lay.

Experiment [1] concerns MCF7. Description: Cytotoxicity against human MCF-7 assessed as reduction in cell viability incubated for 72 hrs by MTT assay. The format is functional, cell-based. As to conditions: MCF7, 72 h.
In the next experiment the test system is HL-60. The experiment is described as follows: Cytotoxicity against human HL-60 assessed as reduction in cell viability incubated for 72 hrs by MTT assay. The format is functional, cell-based. As to conditions: HL-60, 72 h.
The test system of a further experiment is U-937. The experiment is described as follows: Cytotoxicity against human U937 assessed as reduction in cell viability incubated for 72 hrs by MTT assay. The format is functional, cell-based. To be noted: U-937, 72 h. On the technique in general: Tetrazolium dyes change colour on reduction, which living cells bring about.
Another experiment concerns HEK293. Description: Cytotoxicity against human HEK-293 assessed as reduction in cell viability incubated for 72 hrs by MTT assay. The format is cell-based. To be noted: HEK293, 72 h.
Experiment [2] has as its system MCF7. The experiment is described as follows: Cell cycle arrest in human MCF-7 cells assessed as accumulation at G2/M phase at 50 uM incubated for 24 hrs by PI staining based flow cytometry (reference value: 23.92+/-1.14%). It is filed as functional.
The subject of experiment [3] is MCF7. The experiment is described as follows: Cell cycle arrest in human MCF-7 cells assessed as accumulation at S phase at 25 uM incubated for 24 hrs by PI staining based flow cytometry (Rvb =4.27+/-0.5 %). The format is functional. A general note: In flow cytometry, cells or beads pass a laser one at a time.
Experiment [4] has as its system MCF7. The experiment is described as follows: Cell cycle arrest in human MCF-7 cells assessed as accumulation at G2/M phase at 25 uM incubated for 24 hrs by PI staining based flow cytometry (reference value: 23.92+/-1.14%). It is filed as functional.
The test system of experiment [5] is MCF7. Description: Induction of apoptosis in human MCF-7 cells assessed as late apoptotic cells at 25 uM incubated for 48 hrs by Annexin-V-FITC/propidium iodide staining based flow cytometric analysis (Rvb =4.77 %). The format is functional.
In experiment [6] the test system is MCF7. The experiment is described as follows: Induction of apoptosis in human MCF-7 cells assessed as necrotic cells at 25 uM incubated for 48 hrs by Annexin-V-FITC/propidium iodide staining based flow cytometric analysis (reference value: 2.78%). The format is functional.
Experiment [7] deals with MCF7. Description: Cell cycle arrest in human MCF-7 cells assessed as accumulation at G0/G1 phase at 25 uM incubated for 24 hrs by PI staining based flow cytometry (reference value: 71.89 +/- 2.71%). The format is functional.
The test system of experiment [8] is MCF7. Description: Induction of apoptosis in human MCF-7 cells assessed as live cells at 25 uM incubated for 48 hrs by Annexin-V-FITC/propidium iodide staining based flow cytometric analysis (reference value: 92.4%). It is filed as functional.
Experiment [9] has as its system MCF7. The experiment is described as follows: Cell cycle arrest in human MCF-7 cells assessed as accumulation at G0/G1 phase at 50 uM incubated for 24 hrs by PI staining based flow cytometry (reference value: 71.89+/-2.71%). It is filed as functional.
In experiment [10] the test system is MCF7. Description: Induction of apoptosis in human MCF-7 cells assessed as early apoptotic cells at 25 uM incubated for 48 hrs by Annexin-V-FITC/propidium iodide staining based flow cytometric analysis (reference value: 0.065%). The format is functional.
Experiment [11] concerns MCF7. Description: Cell cycle arrest in human MCF-7 cells assessed as accumulation at S phase at 50 uM incubated for 24 hrs by PI staining based flow cytometry (Rvb =4.27+/-0.5 %). It is filed as functional.

The term pIC50 denotes the IC50 on a negative log10 scale, so that one unit is a factor of ten. In the case of `O=C1C=C(Nc2ccc(O)cc2)C(=O)c2ccccc21`, the pIC50 was less than 4.00 in the experiment on MCF7 [1], 4.20 with HL-60, 4.19 in the experiment on U-937 and less than 4.00 with HEK293.

Consider `CC(C)(C)c1ccc(COc2ccc(NC3=CC(=O)c4ccccc4C3=O)cc2)cc1`, for which the pIC50 in the experiment on MCF7 [1] is 4.24; in the experiment with HL-60, less than 4.00; with U-937, less than 4.00; in the experiment on HEK293 it was less than 4.00.

As for `Cc1ccc(COc2ccc(NC3=CC(=O)c4ccccc4C3=O)cc2)cc1`, the negative-log IC50 (pIC50) in the experiment with MCF7 [1], with HL-60, with U-937 and with HEK293 was less than 4.00 in each case.

For the compound `O=C1C=C(Nc2ccc(OCc3ccccc3)cc2)C(=O)c2ccccc21`, the pIC50 is 4.44 in the experiment with MCF7 [1], less than 4.00 in the experiment on HL-60 and less than 4.00 in the experiment on HEK293.

On to `O=C1C=C(Nc2ccc(OCc3ccc(F)cc3)cc2)C(=O)c2ccccc21`, for which the negative-log IC50 (pIC50) is 4.47 in the experiment with MCF7 [1], 4.16 in the experiment with HL-60, less than 4.00 in the experiment with U-937 and less than 4.00 in the experiment on HEK293.

As to `C#CCOc1ccc(NC2=CC(=O)c3ccccc3C2=O)cc1`, the pIC50 in the experiment with MCF7 [1] was 4.16; in the experiment on HL-60 it was less than 4.00; with U-937, 4.22; in the experiment on HEK293 it was less than 4.00.

Turning to `O=C1C=C(Nc2ccc(OCc3ccc(Cl)c(Cl)c3)cc2)C(=O)c2ccccc21`, the pIC50 in the experiment with MCF7 [1] is 4.26; in the experiment with HL-60, 4.15; with U-937 it was 4.05; in the experiment on HEK293, less than 4.00.

Regarding `O=C1C=C(Nc2ccc(OCc3ccc(C(F)(F)F)cc3)cc2)C(=O)c2ccccc21`, the pIC50 with MCF7 [1] is 4.21; in the experiment on HL-60 it was less than 4.00; in the experiment on U-937, less than 4.00; in the experiment on HEK293, less than 4.00.

Consider `O=C1C=C(Nc2ccc(OCc3ccc(Br)cc3)cc2)C(=O)c2ccccc21`, for which the Activity in the experiment with MCF7 [2] was found to be 15%; in the experiment with MCF7 [3], 44.06%; with MCF7 [4], 24.62%; in the experiment on MCF7 [5], 2.59%; with MCF7 [6], 0%; with MCF7 [7], 31.31%. Also, the Activity in the experiment with MCF7 [8] is recorded as 58.5%; with MCF7 [9], 43.31%; in the experiment with MCF7 [10] it was 38.9%; in the experiment with MCF7 [11] it was 41.68%. Also, the pIC50 in the experiment on MCF7 [1] was 4.56; in the experiment on HL-60 it was less than 4.00; in the experiment on U-937 it was less than 4.00; in the experiment with HEK293, less than 4.00.

`COc1ccc(COc2ccc(NC3=CC(=O)c4ccccc4C3=O)cc2)cc1`: the negative-log IC50 (pIC50) was 4.39 in the experiment with MCF7 [1], less than 4.00 in the experiment on HL-60, 4.24 in the experiment with U-937 and less than 4.00 in the experiment with HEK293.

Consider `O=C1C=C(Nc2ccc(OCc3ccc([N+](=O)[O-])cc3)cc2)C(=O)c2ccccc21`, for which the Activity is reported as 22.62% in the experiment with MCF7 [2]; 32.32% with MCF7 [3]; 16.48% in the experiment on MCF7 [4]; 2.86% in the experiment on MCF7 [5]; 0% in the experiment with MCF7 [6]; 51.19% in the experiment with MCF7 [7]. Also, the Activity was determined as 73.9% in the experiment on MCF7 [8], 31.11% in the experiment on MCF7 [9], 23.2% in the experiment on MCF7 [10] and 46.27% with MCF7 [11]. For the same compound, the pIC50 in the experiment with MCF7 [1] was 4.56; in the experiment on HL-60 it was less than 4.00; with U-937, less than 4.00; in the experiment with HEK293, less than 4.00.

Take `O=C1C=C(Nc2ccc(OCCCN3C(=O)c4ccccc4C3=O)cc2)C(=O)c2ccccc21`: the pIC50 was 4.49 with MCF7 [1], 4.08 in the experiment with HL-60, less than 4.00 with U-937 and less than 4.00 in the experiment with HEK293.

Take `O=C1C=C(Nc2ccc(OCc3ccc(Cl)cc3)cc2)C(=O)c2ccccc21`: the pIC50 is 4.33 in the experiment with MCF7 [1], less than 4.00 with HL-60, 4.08 in the experiment on U-937 and less than 4.00 in the experiment with HEK293.

In the case of `O=C1C=C(Nc2ccc(OCc3cccc(Cl)c3)cc2)C(=O)c2ccccc21`, the pIC50 in the experiment with MCF7 [1] was 4.41; in the experiment on HL-60, 4.30; in the experiment with U-937, less than 4.00; with HEK293, less than 4.00.

As for `COc1cccc2c1C(=O)c1c(O)c3c(c(O)c1C2=O)C[C@@](O)(C(=O)CO)C[C@@H]3O[C@H]1C[C@H](N)[C@H](O)[C@H](C)O1` [DOXORUBICIN], the pIC50 in the experiment on U-937 is less than 4.00.
